Assay results from patent publication US7928095B2, “Treatment of resistant or refractory cancers with multi-arm polymeric conjugates of 7-ethyl-10-hydroxycamptothecin” (Enzon Pharmaceuticals, Inc., priority 2007, dated 2011).

Assays:
[1] = system: refractory human HT-29 colorectal tumor; experiment: Therapeutic efficacy in CPT-11 refractory human HT-29 colorectal tumor xenografted nude mice; format: in vivo
Description: Therapeutic efficacy of four-arm PET-Gly-(7-ethyl-10-hydroxycamptothecin) against a refractory human HT-29 colorectal tumor grown in nude mice was determined. […] When tumors reached an average volume of 100 mm^3, mice were treated with CPT-11 (40 mg/kg/dose; q2d×4). Mice were monitored for tumor growth. […] These mice were selected, randomized and divided into two groups. […] The drugs were administered intravenously via the tail vein.
The data in FIG. 1 represent mean±standard deviation (n=7).

[2] = system: Human HT-29 colorectal tumors; experiment: Therapeutic efficacy in HT-29 colorectal tumor xenografted mice, second round treatment after CPT-11; format: in vivo, nude mice
Description: When tumors reached an average volume of 100 mm^3, mice were treated with CPT-11 (40 mg/kg/dose; q2d×4). Mice were monitored for tumor growth. […] One group was further treated with MTD of CPT-11 (40 mg/kg/dose; q2d×5) and the other group was treated with MTD of four-arm ^40KPEG-Gly-(7-ethyl-10-hydroxycamptothecin) (10 mg/kg/dose q2d×5) starting day 16. The drugs were administered intravenously via the tail vein.
The data in FIG. 2 represent mean±standard deviation (n=10).

[3] = system: CPT-refractory cell line (CEM/C2); details: CEM/C2 cells, 2 days at 37° C., MTS; FIG. 3
Description: CPT-refractory cell line (CEM/C2) and the corresponding non-refractory parent cell line (CEM) were treated with PEG-Gly-(7-ethyl-10-hydroxycamptothecin), 7-ethyl-10-hydroxycamptothecin, and CPT-11. The CEM/C2 and CEM were obtained from NCI. The CEM cell lines are acute lymphoblastic leukemia cell lines. The in vitro cytotoxicity of each drug was determined using a MTS assay. […] At the end of the incubation, MTS dye was added and incubated for 2 to 3 hours at 37° C. and formation of a colored product (formazan) was measured at 490 nm. The % viability at each drug concentration was calculated as [OD test samples−background]/[OD controls (no treatment)−background]. Sigmoidal dose response curves were generated by plotting Log (Drug) as a function of % viability (survival) and IC50 values were calculated using the GraphPad Prism software.

Molecule	animals sacrificed due to excessive tumor burden (>1,650 mm^3) ([1]; by day 42) [%]	animals sacrificed due to excessive tumor burden (>1,650 mm^3) ([1]; by day 54) [%]	animals sacrificed due to excessive tumor burden ([2]; as of day 61) [%]	mice with tumors <1,650 mm^3 ([1]; by day 72) [%]	tumor volume decreased compared to day 15 ([1]; day 42, CPT-11 refractory mice, 10 mg/kg/dose q2d×5 i.v. starting day 16) [%]	animals sacrificed ([1]; on day 63, n=7)	tumor volume increased compared to day 1 ([2]; day 54, CPT-11 sensitive mice, second round treatment q2d×5 i.v. starting day 16) [%]	deaths recorded ([2]; on day 61)	potency relative to CPT-11 (cytotoxicity IC50) [3]
CCc1c2c(nc3ccc(OC(=O)N4CCC(N5CCCCC5)CC4)cc13)-c1cc3c(c(=O)n1C2)COC(=O)[C@]3(O)CC [CPT-11, Irinotecan, reference compound]	29	100	60	–	–	–	–	–	–
four-arm ^40KPEG-Gly-(7-ethyl-10-hydroxycamptothecin) [compound 9]	–	–	–	58	25	1 of 7	193	No deaths	about 10 fold
